Measurements from US20250312499A1, “KISSPEPTIN RECEPTOR (KISS1R) TARGETED THERAPEUTICS AND USES THEREOF” (priority 2024, published 2025).
Square brackets hold non-standard residues; d marks the D form. Peptide text beside a SMILES is read from it. * marks the point of attachment. DOTA = O=C(O)CN1CCN(CC(=O)O)CCN(CC(=O)*)CCN(CC(=O)O)CC1; Gly(N-(3-F-4-Me-benzyl)) = Cc1ccc(CNCC(=O)*)cc1F; Api(1-amidino) = N=C(N)N1CCC(N)(C(=O)O)CC1; Hydrocinnamoyl(4-Me) = Cc1ccc(CCC(=O)*)cc1; 2Nal = N[C@@H](Cc1ccc2ccccc2c1)C(=O)O; d2Nal = N[C@H](Cc1ccc2ccccc2c1)C(=O)O; 4Pal = N[C@@H](Cc1ccncc1)C(=O)O; Cha = N[C@@H](CC1CCCCC1)C(=O)O; Api = NC1(C(=O)O)CCNCC1; PEG2 = NCCOCCOCCC(=O)O; Ahx = NCCCCCC(=O)O; azaGly = NNC(=O)O; Sar = CNCC(=O)O

Target: human kisspeptin receptor (Homo sapiens (Human), UniProt Q969F8)
Sequence (Q969F8 whole entry): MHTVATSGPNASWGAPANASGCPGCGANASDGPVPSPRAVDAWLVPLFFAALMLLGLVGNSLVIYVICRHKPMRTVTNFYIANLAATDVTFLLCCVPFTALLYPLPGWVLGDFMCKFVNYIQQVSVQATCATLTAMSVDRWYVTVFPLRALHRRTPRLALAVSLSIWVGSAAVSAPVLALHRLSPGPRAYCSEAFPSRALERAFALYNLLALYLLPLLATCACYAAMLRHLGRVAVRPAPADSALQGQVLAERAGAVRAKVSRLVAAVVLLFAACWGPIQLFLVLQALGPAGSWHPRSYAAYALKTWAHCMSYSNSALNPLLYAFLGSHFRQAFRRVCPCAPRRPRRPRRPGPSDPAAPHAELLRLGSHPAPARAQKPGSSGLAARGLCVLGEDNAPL
Assay: Human KISS1R binding assay (membrane competition binding)
Conditions: 90 min at room temperature; competition with 0.2 nM [125I]-metastin (45-54); Flp-In T-Rex 293 kisspeptin membranes; metal complexes nonradioactive Ga, In, Lu; read-out: hKiSSR Binding Ki (90 min)
Protocol: Crude membrane fractions are prepared from Flp-In T-Rex 293 (Thermo Fisher) cell line expressing the human kisspeptin receptor. The cells are grown to 85-100% confluence on standard tissue culture dishes in Dulbecco's Modified Eagles Medium (DMEM) (Corning) supplemented with 10% FBS (Gemini), 1% penicillin-streptomycin-glutamine (Gibco), 500 μg/mL hygromycin, and 15 μg/mL blastacidin. 48 hrs prior to preparing membranes 10 μg/ml of tetracycline is added to the culture media to induce receptor expression. To prepare membranes, cells are scraped and collected in 1× Dulbecco's phosphate buffered saline (Corning) and then pelleted at 1000 RPMs. The cell pellet is reconstituted in membrane preparation buffer (20 mM HEPES, 6 mM MgCl2 and 1 mM EGTA, protease inhibitor tablets (Pierce), pH 7.4) and placed in a cell disruption vessel (Parr Instrument company) at 1000 PSI for 30 min on ice. The pressurized contents are then released and spun down at 1000 RPMs and the supernatant is collected and further centrifuged at 15,000 RPMs to pellet the membranes. The membrane pellet is resuspended in membrane preparation buffer, snap frozen and stored at −80° C. for later use.
The human kisspeptin membrane binding assay utilizes the following components: radiolabel [^125I]-metastin (45-54) (human) (Perkinhmer), crude Flp-In T-Rex 293 kisspeptin membranes, and competing small molecule and peptide ligands. The assay is initiated by combining in assay buffer (50 mM TrisHCl, 5 mM MgCl2, 2 mM EGTA, 10 mM CaCl2, 0.1% BSA, pH 7.4) a dose response of competing ligand (final concentrations are typically 0-10,000 nM), 5-10 μg of Flp-In T-Rex 293 kisspeptin membranes, and 0.2 n M [^125I]-metastin (45-54) in a 96-well assay plate and allowed to incubate 90 minutes at room temperature. Assay contents are then filtered through unifilter CF/C: microplates (PerkinElmer) pre-soaked with 0.5% BSA and washed with 9×400 μL of cold wash buffer (10 mM HEPES, 500 mM NaCl, 0.1% Tween-20, pH7.4). Assay plates are read using a Microbeta^2 (PerkinElmer) and Ki values for compounds are determined using a GraphPad Prism 9.3 non-linear regression analysis.

Ki, < 10 nM:
CNCC(=O)N1CCC(NC(=O)[C@H](CC(C)C)NC(=O)NNC(=O)[C@H](Cc2ccccc2)NC(=O)[C@@H](NC(=O)[C@H](CC(N)=O)NC(=O)[C@@H](Cc2ccc3ccccc3c2)NC(=O)[C@@H](Cc2ccc(O)cc2)NC(=O)CCCCCNC(=O)CN2CCN(CC(=O)O)CCN(CC(=O)O)CCN(CC(=O)O)CC2)[C@@H](C)O)(C(=O)N[C@@H](Cc2c[nH]c3ccccc23)C(N)=O)CC1 [Compound 201] ({DOTA-Ahx}-[dY][d2Nal]NTF[azaGly]L[Api](Sar)W-NH2)
CNCC(=O)N1CCC(NC(=O)[C@H](CC(C)C)NC(=O)NNC(=O)[C@H](Cc2ccccc2)NC(=O)[C@@H](NC(=O)[C@H](CC(N)=O)NC(=O)[C@@H](CCCCNC(=O)CN2CCN(CC(=O)O)CCN(CC(=O)O)CCN(CC(=O)O)CC2)NC(=O)[C@@H](Cc2ccc(O)cc2)NC(=O)CCOCCOCCNC(=O)CCc2ccc(C)cc2)[C@@H](C)O)(C(=O)N[C@H](Cc2c[nH]c3ccccc23)C(N)=O)CC1 [Compound 357] ({Hydrocinnamoyl(4-Me)-PEG2}-[dY][dK](DOTA)NTF[azaGly]L[Api](Sar)[dW]-NH2)
CC(=O)N[C@H](Cc1ccc(O)cc1)C(=O)N[C@H](Cc1c[nH]c2ccccc12)C(=O)N[C@@H](CC(N)=O)C(=O)N[C@H](C(=O)N[C@@H](CC1CCCCC1)C(=O)NNC(=O)N[C@@H](CC(C)C)C(=O)NC1(C(=O)N[C@@H](Cc2c[nH]c3ccccc23)C(N)=O)CCN(C(=O)CNCc2ccc(C)c(F)c2)CC1)[C@@H](C)O [Compound 391] (Ac-[dY][dW]NT[Cha][azaGly]L[Api](Gly(N-(3-F-4-Me-benzyl)))W-NH2)
Cc1ccc(CNCC(=O)N2CCC(NC(=O)[C@H](CC(C)C)NC(=O)NNC(=O)[C@H](Cc3ccccc3)NC(=O)[C@@H](NC(=O)[C@H](CC(N)=O)NC(=O)[C@@H](Cc3c[nH]c4ccccc34)NC(=O)[C@@H](Cc3ccc(O)cc3)NC(=O)CCCCCNC(=O)CN3CCN(CC(=O)O)CCN(CC(=O)O)CCN(CC(=O)O)CC3)[C@@H](C)O)(C(=O)N[C@H](Cc3c[nH]c4ccccc34)C(N)=O)CC2)cc1F [Compound 383] ({DOTA-Ahx}-[dY][dW]NTF[azaGly]L[Api](Gly(N-(3-F-4-Me-benzyl)))[dW]-NH2)
CC(C)C[C@H](NC(=O)NNC(=O)[C@H](Cc1ccccc1)NC(=O)[C@@H](NC(=O)[C@H](CC(N)=O)NC(=O)[C@H](Cc1ccc2ccccc2c1)NC(=O)[C@@H](Cc1ccc(O)cc1)NC(=O)CCCCCNC(=O)CN1CCN(CC(=O)O)CCN(CC(=O)O)CCN(CC(=O)O)CC1)[C@@H](C)O)C(=O)NC1(C(=O)N[C@@H](Cc2ccncc2)C(N)=O)CCN(C(=N)N)CC1 [Compound 275] ({DOTA-Ahx}-[dY][2Nal]NTF[azaGly]L[Api(1-amidino)][4Pal]-NH2)
Cc1ccc(CNCC(=O)N2CCC(NC(=O)[C@H](CC(C)C)NC(=O)NNC(=O)[C@H](Cc3ccccc3)NC(=O)[C@@H](NC(=O)[C@H](CC(N)=O)NC(=O)[C@@H](Cc3c[nH]c4ccccc34)NC(=O)[C@@H](Cc3ccc(O)cc3)NC(=O)CCCCCNC(=O)CN3CCN(CC(=O)O)CCN(CC(=O)O)CCN(CC(=O)O)CC3)[C@@H](C)O)(C(=O)N[C@@H](Cc3ccc(O)cc3)C(N)=O)CC2)cc1F [Compound 366] ({DOTA-Ahx}-[dY][dW]NTF[azaGly]L[Api](Gly(N-(3-F-4-Me-benzyl)))Y-NH2)
Cc1ccc(CNCC(=O)N2CCC(NC(=O)[C@H](CC(C)C)NC(=O)NNC(=O)[C@H](Cc3ccccc3)NC(=O)[C@H](C)NC(=O)[C@H](CC(N)=O)NC(=O)[C@@H](Cc3c[nH]c4ccccc34)NC(=O)[C@@H](Cc3ccc(O)cc3)NC(=O)CCCCCNC(=O)CN3CCN(CC(=O)O)CCN(CC(=O)O)CCN(CC(=O)O)CC3)(C(=O)N[C@@H](CC(C)C)C(N)=O)CC2)cc1F [Compound 113] ({DOTA-Ahx}-[dY][dW]NAF[azaGly]L[Api](Gly(N-(3-F-4-Me-benzyl)))L-NH2)
